Here are results for 21 molecules from patent US11339157B1, “4H-pyrrolo[3,2-c]pyridin-4-one derivatives” (Bayer Aktiengesellschaft, priority 2017, dated 2022).

One test concerns Ba/F3-EGFR-WT cells. The test is described as follows: Proliferation assay in BA/F3 (wild type) cells (Cell Titer-Glo). It is filed as cell-based. How it is done:
(§1) Cellular Data Description (WT, insSVD, Ins ASV)
(§2) Plates were incubated at 37° C. for 48 h. Retrovirus was harvested by filtering the media supernatant through a 0.45 μm filter.
(§3) Ba/F3 cells purchased from DSMZ were grown in RPMI+10% FBS+10 ng/mL IL-3 and infected with filtered retroviral supernatant at a 1:2 dilution. Polybrene was added to a concentration of 8 μg/mL, plates were spun for 90 min, and incubated overnight at 37° C. 2 μg/mL puromycin was added to the infected cells 24 h after infection and cells were continually grown in the presence of puromycin and 10 ng/mL IL-3. Following stably expressing Ba/F3 cell lines were generated: Ba/F3-EGFR-WT, Ba/F3-EGFR-insSVD.
(§4) The cells ectopically expressing WT EGFR were plated with 10 ng/mL Millipore Culture grade EGF. The cells ectopically expressing EGFR-insSVD were plated without EGF.
(§5) 100 nL of compound was added to each well using a 100 nL pin head, and plates were incubated at 37° C. for 48 h.
(§6) Cell viability was measured by adding 30 μL of Cell Titer-Glo Luminescent Cell Viability Reagent. Plates were sealed with Perkin Elmer Top-Seal, inverted several times to mix, and immediately centrifuged at 1000 rpm for 2 min. Plates were incubated in low light conditions for 8-10 min and luminescence was measured.

Another test concerns Ba/F3-EGFR-insSVD cells. The test can be described thus: Proliferation assay in BA/F3 (ins SVD) cells (Cell Titer-Glo). In kind it is cell-based. How it is done:
as §1, §2, §3, §4, §5, §6
Background: ATP-based viability assays read luminescence as a measure of living cells.

The target in test [1] is EGFR ins SVD (insertion of SVD between D770 and N771) (Homo sapiens, UniProt P00533, INS767SVD). The test is described as follows: Exon 20-Mutant-EGFR(D770_N771insSVD) kinase assay (TR-FRET). In kind it is biochemical. The settings on record: Table 9; read-out: mutEGFR (D770_N771insSVD) kinase assay IC50.
Description: Exon 20-Mutant-EGFR(D770_N771insSVD) Kinase Assay
Inhibitory activity of compounds of the present invention against an Epidermal Growth Factor Receptor (EGFR) with an insertion of the amino acids sequence SVD between D770 and N771 was quantified employing the TR-FRET based kinase activity assay as described in the following paragraphs.
For the assay 50 nl of a 100-fold concentrated solution of the test compound in DMSO was pipetted into either a black low volume 384 well microtiter plate or a black 1536 well microtiter plate (both Greiner Bio-One, Frickenhausen, Germany), 2 μl of a solution of EGFR in aqueous assay buffer [50 mM Hepes pH 7.0, 10 mM MgCl2, 1 mM dithiothreitol, 0.5 mM EGTA, 0.3 mM activated sodium ortho-vanadate, 0.005% (w/v) bovine serum albumin, 0.005% (v/v) Tween-20] were added and the mixture was incubated for 15 min at 22° C. to allow pre binding of the test compounds to the enzyme before the start of the kinase reaction. […] The concentration of EGFR was adjusted depending of the activity of the enzyme lot and was chosen appropriate to have the assay in the linear range, typical concentration was 15 pg/μl. The reaction was stopped by the addition of 3 μl of a solution of HTRF detection reagents (83.3 nM streptavidine-XL665 [Cisbio Bioassays, Codolet, France] and 1.67 nM PT66-Tb-Cryptate, a terbium-cryptate labelled anti-phospho-tyrosine antibody from Cisbio Bioassays [instead of the PT66 Tb cryptate PT66 Eu Chelate from Perkin Elmer can also be used]) in an aqueous EDTA-solution (133.3 mM EDTA, 0.2% (w/v) bovine serum albumin in 50 mM HEPES pH 7.5).
The resulting mixture was incubated 1 h at 22° C. to allow the binding of the biotinylated phosphorylated peptide to the streptavidine-XL665 and the PT66-Tb-Cryptate. Subsequently the amount of phosphorylated substrate was evaluated by measurement of the resonance energy transfer from the PT66-Tb-Cryptate to the streptavidine-XL665.
Where [2] appears, read: Mus musculus, BaF3, 48 h, Table 10, plated with 10 ng/mL EGF.
[3] abbreviates: Mus musculus, BaF3, 48 h, Table 10, plated without EGF.
The mark [4] stands for this setting: Table 10, plated without EGF, 48 h.
The mark [5] stands for this setting: Mus musculus, BaF3, Table 10, plated with 10 ng/mL EGF, 48 h.
Where [6] appears, read: Mus musculus, BaF3, Table 10, plated without EGF, 48 h.

SMILES strings stand for the structures. Values joined by “and” are separate entries in the source; they are usually repeats but may differ in a detail not shown here. Identical values can stand only once. Counter-ions that a name gives are not always drawn.

Sequence of EGFR ins SVD (insertion of SVD between D770 and N771) (P00533 with tags, fused parts or gaps INS767SVD limits assumed): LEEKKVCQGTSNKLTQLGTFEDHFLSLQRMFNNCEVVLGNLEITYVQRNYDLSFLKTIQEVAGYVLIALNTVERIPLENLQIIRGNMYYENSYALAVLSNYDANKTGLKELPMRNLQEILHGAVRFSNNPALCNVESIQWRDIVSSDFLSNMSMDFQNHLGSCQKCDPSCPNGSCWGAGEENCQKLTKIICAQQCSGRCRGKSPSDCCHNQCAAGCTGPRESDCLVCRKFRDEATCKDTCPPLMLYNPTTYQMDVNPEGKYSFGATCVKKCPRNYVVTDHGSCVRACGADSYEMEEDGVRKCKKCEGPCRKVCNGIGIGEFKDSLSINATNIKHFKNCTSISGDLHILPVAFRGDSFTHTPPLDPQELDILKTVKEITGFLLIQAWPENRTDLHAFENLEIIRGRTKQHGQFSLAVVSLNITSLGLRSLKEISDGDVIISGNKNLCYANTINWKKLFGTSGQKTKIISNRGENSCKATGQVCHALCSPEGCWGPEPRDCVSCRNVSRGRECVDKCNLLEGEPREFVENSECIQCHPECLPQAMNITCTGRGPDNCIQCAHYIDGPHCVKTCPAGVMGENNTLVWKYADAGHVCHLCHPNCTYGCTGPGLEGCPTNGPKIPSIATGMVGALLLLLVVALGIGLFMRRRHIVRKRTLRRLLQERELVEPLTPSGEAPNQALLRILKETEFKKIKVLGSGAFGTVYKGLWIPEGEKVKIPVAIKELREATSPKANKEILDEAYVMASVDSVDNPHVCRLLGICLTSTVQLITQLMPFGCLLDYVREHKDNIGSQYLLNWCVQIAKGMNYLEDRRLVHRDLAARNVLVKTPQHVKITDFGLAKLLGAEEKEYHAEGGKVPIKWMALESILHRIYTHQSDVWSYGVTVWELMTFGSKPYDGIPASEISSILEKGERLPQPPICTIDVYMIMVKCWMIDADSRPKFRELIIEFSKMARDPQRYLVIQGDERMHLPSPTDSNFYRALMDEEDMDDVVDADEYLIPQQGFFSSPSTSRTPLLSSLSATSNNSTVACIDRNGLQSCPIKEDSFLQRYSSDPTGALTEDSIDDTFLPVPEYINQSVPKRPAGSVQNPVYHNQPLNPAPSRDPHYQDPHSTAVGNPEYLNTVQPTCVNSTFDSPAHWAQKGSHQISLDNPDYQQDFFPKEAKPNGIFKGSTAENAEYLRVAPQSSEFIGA

One may read the IC50 as the point on the concentration scale where inhibition reaches its midpoint. `COC(C)(C)COc1cnccc1-c1[nH]c2c(c1Nc1cc(F)cc(F)c1OC(F)F)C(=O)NCC2` [Example 43, 3-[2-(difluoromethoxy)-3,5-difluoroanilino]-2-[3-(2-methoxy-2-methylpropoxy)pyridin-4-yl]-1,5,6,7-tetrahydro-4H-pyrrolo[3,2-c]pyridin-4-one]: the IC50 with Ba/F3-EGFR-WT cells (setting [2]) was 1880 nM; in the test on Ba/F3-EGFR-insSVD cells (setting [3]), 117 nM; in test [1], 0.1 nM.

For the molecule `COc1c(F)cccc1Nc1c(-c2ccncc2OCCC(C)(C)OC)[nH]c2c1C(=O)NCC2` [Example 57, 3-(3-fluoro-2-methoxyanilino)-2-[3-(3-methoxy-3-methylbutoxy)pyridin-4-yl]1,5,6,7-tetrahydro-4H-pyrrolo[3,2-c]pyridin-4-one], the IC50 in the test with Ba/F3-EGFR-WT cells (setting [2]) amounted to 535 nM; in the test with Ba/F3-EGFR-insSVD cells (setting [3]), 14.7 nM; in test [1], 0.228 nM.

Turning to `COC(C)(C)COc1cnccc1-c1[nH]c2c(c1Nc1cc(F)ccc1C)C(=O)NCC2` [Example 45, 3-(5-fluoro-2-methylanilino)-2-[3-(2-methoxy-2-methylpropoxy)pyridin-4-yl]-1,5,6,7-tetrahydro-4H-pyrrolo[3,2-c]pyridin-4-one], the values for the IC50 (in the test with Ba/F3-EGFR-WT cells (setting [2]); in the test on Ba/F3-EGFR-insSVD cells (setting [3]); in test [1]) were 2490 nM, 255 nM and 0.319 nM, respectively.

Take `COc1c(F)cccc1Nc1c(-c2ccncc2OCCN(C)C)[nH]c2c1C(=O)NCC2` [Example 53, 2-{3-[2-(dimethylamino)ethoxy]pyridin-4-yl}-3-(3-fluoro-2-methoxyanilino)-1,5,6,7-tetrahydro-4H-pyrrolo[3,2-c]pyridin-4-one]: the IC50 is 804 nM in the test on Ba/F3-EGFR-WT cells (setting [2]), 31.1 nM in the test on Ba/F3-EGFR-insSVD cells (setting [3]) and 0.332 nM in test [1].

Turning to `COC(C)(C)COc1cnccc1-c1[nH]c2c(c1Nc1cccc(Cl)c1OC(F)F)C(=O)NCC2` [Example 38, 3-[3-chloro-2-(difluoromethoxy)anilino]-2-[3-(2-methoxy-2-methylpropoxy)pyridin-4-yl]-1,5,6,7-tetrahydro-4H-pyrrolo[3,2-c]pyridin-4-one], the figures for the IC50 (in the test on Ba/F3-EGFR-WT cells (setting [2]); in the test with Ba/F3-EGFR-insSVD cells (setting [3]); in test [1]) were 466 nM, 17.5 nM and 0.13 nM, respectively.

As for `CC(C)(O)COc1cnccc1-c1[nH]c2c(c1Nc1cccc(F)c1OC(F)F)C(=O)NCC2` [Example 73, 3-[2-(difluoromethoxy)-3-fluoroanilino]-2-[3-(2-hydroxy-2-methylpropoxy)pyridin-4-yl]-1,5,6,7-tetrahydro-4H-pyrrolo[3,2-c]pyridin-4-one], the IC50 in the test with Ba/F3-EGFR-WT cells (setting [2]) was 2520 nM; in the test with Ba/F3-EGFR-insSVD cells (setting [3]), 416 nM; in test [1] it was 0.167 nM.

On to `COc1c(Nc2c(-c3ccncc3OCC(C)(C)OC)[nH]c3c2C(=O)NCC3)ccc(F)c1Cl` [Example 44, 3-(3-chloro-4-fluoro-2-methoxyanilino)-2-[3-(2-methoxy-2-methylpropoxy)pyridin-4-yl]-1,5,6,7-tetrahydro-4H-pyrrolo[3,2-c]pyridin-4-one], for which the IC50 in the test on Ba/F3-EGFR-WT cells (setting [2]) is 2450 nM; with Ba/F3-EGFR-insSVD cells (setting [3]), 173 nM; in test [1] it was 0.0922 nM and < 0.0725 nM.

As to `COC(C)(C)COc1cnccc1-c1[nH]c2c(c1Nc1cc(F)cc(F)c1C)C(=O)NCC2` [Example 40, 3-(3,5-difluoro-2-methylanilino)-2-[3-(2-methoxy-2-methylpropoxy)pyridin-4-yl]-1,5,6,7-tetrahydro-4H-pyrrolo[3,2-c]pyridin-4-one], the IC50 in the test on Ba/F3-EGFR-WT cells (setting [2]) turned out to be 1450 nM; in the test on Ba/F3-EGFR-insSVD cells (setting [3]) it was 50.5 nM; in test [1], 0.0994 nM.

Regarding `COC(C)(C)COc1cnccc1-c1[nH]c2c(c1Nc1ccccc1C(F)(F)F)C(=O)NCC2` [Example 42, 2-[3-(2-methoxy-2-methylpropoxy)pyridin-4-yl]-3-[2-(trifluoromethyl)anilino]-1,5,6,7-tetrahydro-4H-pyrrolo[3,2-c]pyridin-4-one], the IC50 in the test on Ba/F3-EGFR-WT cells (setting [2]) came out at 625 nM; in the test on Ba/F3-EGFR-insSVD cells (setting [3]), 72.9 nM; in test [1] it was 0.19 nM.

Regarding `CN(C)CCOc1cnccc1-c1[nH]c2c(c1Nc1cccc(F)c1OC(F)F)C(=O)NCC2` [Example 64, 3-[2-(difluoromethoxy)-3-fluoroanilino]-2-{3-[2-(dimethylamino)ethoxy]pyridin-4-yl}-1,5,6,7-tetrahydro-4H-pyrrolo[3,2-c]pyridin-4-one], the IC50 in the test with Ba/F3-EGFR-WT cells (setting [2]) was determined as 1890 nM; in the test with Ba/F3-EGFR-insSVD cells (setting [3]), 121 nM; in test [1], 0.443 nM.

In the case of `COc1c(Cl)cccc1Nc1c(-c2ccncc2OCC2CCCCO2)[nH]c2c1C(=O)NCC2` (stereo not drawn) [Example 68], the IC50 in the test with Ba/F3-EGFR-WT cells (setting [2]) was 109 nM; in the test with Ba/F3-EGFR-insSVD cells (setting [3]), 2.94 nM; in test [1], 0.115 nM.

Take `O=C1NCCc2[nH]c(-c3ccncc3OCC3CCOC3)c(Nc3cccc(Cl)c3OC(F)F)c21` (stereo not drawn) [Example 79, 3-[3-chloro-2-(difluoromethoxy)anilino]-2-{3-[(oxolan-3-yl)methoxy]pyridin-4-yl}-1,5,6,7-tetrahydro-4H-pyrrolo[3,2-c]pyridin-4-one]: the figures for the IC50 (in the test with Ba/F3-EGFR-WT cells (setting [2]); in the test with Ba/F3-EGFR-insSVD cells (setting [3]); in test [1]) were 1810 nM, 118 nM and 0.242 nM, respectively.

Turning to `COc1c(Cl)cccc1Nc1c(-c2ccncc2OCCN(C)C)[nH]c2c1C(=O)NCC2` [Example 54, 3-(3-chloro-2-methoxyanilino)-2-{3-[2-(dimethylamino)ethoxy]pyridin-4-yl}-1,5,6,7-tetrahydro-4H-pyrrolo[3,2-c]pyridin-4-one], the IC50 is 1300 nM with Ba/F3-EGFR-WT cells (setting [2]), 37.5 nM in the test on Ba/F3-EGFR-insSVD cells (setting [3]) and 0.912 nM in test [1].

On to `COC(C)(C)COc1cnccc1-c1[nH]c2c(c1Nc1cccc(F)c1OC(F)F)C(=O)NCC2` [Example 83, 3-[2-(difluoromethoxy)-3-fluoroanilino]-2-[3-(2-methoxy-2-methylpropoxy)pyridin-4-yl]-1,5,6,7-tetrahydro-4H-pyrrolo[3,2-c]pyridin-4-one-hydrogen chloride (1/1) Salt], for which the IC50 with Ba/F3-EGFR-WT cells (Table 10, plated with 10 ng/mL EGF, 48 h) was found to be 2290 nM; in the test with Ba/F3-EGFR-insSVD cells (setting [4]), 100 nM; in test [1], 0.167 nM.

Turning to `Cc1c(F)cccc1Nc1c(-c2ccncc2OC[C@@H]2CCCN2C)[nH]c2c1C(=O)NCC2` [Example 49, 3-(3-fluoro-2-methylanilino)-2-(3-{[(25)-1-methylpyrrolidin-2-yl]methoxy}pyridin-4-yl)-1,5,6,7-tetrahydro-4H-pyrrolo[3,2-c]pyridin-4-one], the IC50 with Ba/F3-EGFR-WT cells (setting [5]) was 919 nM; with Ba/F3-EGFR-insSVD cells (setting [6]) it was 19.1 nM; in test [1] it was 0.518 nM.

For `COc1c(F)cccc1Nc1c(-c2ccncc2OCC(C)(C)N(C)C)[nH]c2c1C(=O)NCC2` [Example 74, 2-{3-[2-(dimethylamino)-2-methylpropoxy]pyridin-4-yl}-3-(3-fluoro-2-methoxyanilino)-1,5,6,7-tetrahydro-4H-pyrrolo[3,2-c]pyridin-4-one], the IC50 in the test with Ba/F3-EGFR-WT cells (setting [2]) was found to be 4070 nM; in the test with Ba/F3-EGFR-insSVD cells (setting [3]) it was 97.9 nM; in test [1], 0.865 nM.

For `CN1CCC[C@H]1COc1cnccc1-c1[nH]c2c(c1Nc1cccc(Cl)c1OC(F)F)C(=O)NCC2` [Example 50, 3-[3-chloro-2-(difluoromethoxy)anilino]-2-(3-{[(2S)-1-methylpyrrolidin-2-yl]methoxy}pyridin-4-yl)-1,5,6,7-tetrahydro-4H-pyrrolo[3,2-c]pyridin-4-one], the IC50 in the test on Ba/F3-EGFR-WT cells (setting [2]) turned out to be 2100 nM; in the test with Ba/F3-EGFR-insSVD cells (setting [3]), 60.9 nM; in test [1], 1.26 nM.

`COc1c(F)cccc1Nc1c(-c2ccncc2OCC(C)(C)N2CCOCC2)[nH]c2c1C(=O)NCC2` [Example 75, 3-(3-fluoro-2-methoxyanilino)-2-{3-[2-methyl-2-(morpholin-4-yl)propoxy]pyridin-4-yl}-1,5,6,7-tetrahydro-4H-pyrrolo[3,2-c]pyridin-4-one]: the IC50 with Ba/F3-EGFR-WT cells (setting [5]) was found to be 2360 nM; in the test on Ba/F3-EGFR-insSVD cells (setting [6]), 98 nM; in test [1], 0.903 nM.

Take `COc1c(F)cccc1Nc1c(-c2ccncc2OCC2CCCO2)[nH]c2c1C(=O)NCC2` (single isomer, unassigned; enantiomer 1) [Example 88, 3-(3-fluoro-2-methoxyanilino)-2-{3-[(oxolan-2-yl)methoxy]pyridin-4-yl}-1,5,6,7-tetrahydro-4H-pyrrolo[3,2-c]pyridin-4-one (enantiomer 1)]: the IC50 in the test with Ba/F3-EGFR-WT cells (setting [2]) was found to be 388 nM; in the test on Ba/F3-EGFR-insSVD cells (setting [4]), 38 nM; in test [1], 0.0888 nM.

As to `Cc1c(F)cccc1Nc1c(-c2ccncc2OCCN(C)C)[nH]c2c1C(=O)NCC2` [Example 56, 2-{3-[2-(dimethylamino)ethoxy]pyridin-4-yl}-3-(3-fluoro-2-methylanilino)-1,5,6,7-tetrahydro-4H-pyrrolo[3,2-c]pyridin-4-one], the IC50 in the test with Ba/F3-EGFR-WT cells (setting [2]) stood at 1900 nM; with Ba/F3-EGFR-insSVD cells (setting [3]), 242 nM; in test [1], 0.562 nM.

Take `COCCOc1cnccc1-c1[nH]c2c(c1Nc1cccc(Cl)c1OC)C(=O)NCC2` [Example 32, 3-(3-chloro-2-methoxyanilino)-2-[3-(2-methoxyethoxy)pyridin-4-yl]-1,5,6,7-tetrahydro-4H-pyrrolo[3,2-c]pyridin-4-one]: the IC50 in the test on Ba/F3-EGFR-WT cells (setting [2]) is 299 nM; with Ba/F3-EGFR-insSVD cells (setting [3]), 9.87 nM; in test [1] it was 0.076 nM and < 0.0725 nM.
